From patent US20070078434A1, “Indications For Local Transport of Anaesthetic Agents By Electrotransport Devices” (Vyteris, Inc., priority 2005, published 2007)
Where a name gives a salt, the structure may show the parent alone. Read-outs that look alike come from different tables or passages of the source.

How the values were obtained:
[1] = iontophoresis in vitro across human skin; cited from earlier work
subjects = assay: Study 16: Platform IIA under various treatment conditions; format: in vivo, human; conditions: patches containing lidocaine 10% with and without epinephrine
anesthetized guinea pigs [2] = conditions: guinea pig, in vivo
[3] = codelivered with 300 mg of lidocaine; cited from earlier work
anesthetized guinea pigs [4] = assay: In vivo delivery of radiolabeled drug into anesthetized guinea pigs

## CCCN(CC)C(CC)C(=O)Nc1c(C)cccc1C (stereo not shown) [etidocaine]
[1]
  cumulative delivery compared with lidocaine: slightly greater delivery

## CCCNC(C)C(=O)Nc1ccccc1C (stereo not shown) [prilocaine]
[1]
  cumulative delivery compared with lidocaine: slightly greater delivery

## CNCC(O)c1ccc(O)c(O)c1 [epinephrine, 1,2 Beizenediol, 4-[1-hydroxy-2-(methylamino)ethyl]-,(R)—, [R—(R*,R*)]-2,3-dihydroxybutanedioate (1:1) (salt)]
subjects
  effect of epinephrine on the anaesthetic effect of lidocaine: significantly enhanced
Anesthetized guinea pigs [2]
  amount delivered per patch: 2.4 µg
[3]
  maximum recommended dose: 150 µg

## CCN(CC)CCOC(=O)c1ccc(N)cc1 [procaine]
[1]
  cumulative delivery compared with lidocaine: slightly greater delivery

## CCN(CC)CC(=O)Nc1c(C)cccc1C.Cl [lidocaine, 2-(Diethylamino)-2′,6′-acetoxylidide mono hydrochloride, monohydrate]
Anesthetized guinea pigs [4]
  amount delivered per patch: 467 µg
